Test results published in patent US5486528A, “Basic ethers and process for the preparation thereof” (Egis Gyogyszergyar Rt., priority 1993, dated 1996).

Assays:
H^+ /K^+ -ATP-ase = target: T1, H^+ /K^+ -ATP-ase (Sus scrofa, UniProt P19156); test: H+/K+-ATP-ase inhibition on partially purified pig's microsome specimen; format: biochemical
T1 construct: on partially purified pig's microsome specimen; from tissue; host or cells: pig stomach, partially purified microsomes
Description: 1. H^+ /K^+ -ATP-ase inhibition on pig's stomach
The test was carried out according to the method of Rabon and Sachs [E. C. Rabon et al.: Preparation of gastric H^+ K^+ -ATP-ase, Methods in Enzymology, 157, 649-651 (1988)]. The activity of the prepared enzyme was measured both in the presence as in the absence of K^+ ions. The difference in the libaration of phosphorus representing the activity of the enzyme was measured.

Male Wistar rats [1] = test: Conditioned avoidance response inhibition, antipsychotic effect; format: in vivo, rat (Wistar); conditions: rat, 30 mg/kg p.o.; ++ = p < 0.05
Description: Conditioned avoidance response inhibition
The antipsychotic (neuroleptic) effect was measured by the inhibition of the learned conditioned avoidance reflex. The male Wistar rats, used for the study, were of 120-150 g body weight at the commencement of learning. A shuttle box was used as experimental device; it consists of two parts, 24×24.5×23 cm each, separated by a wall with a 6×9 cm gate. In response to a sutiable warning stimulus, in order to avoid the punishing (unconditioned) stimulus, animals within the box passed through the gate from one part to the other. The warning, i.e. conditioned stimulus (CS), a white light (1 Hz) blinking for 15 seconds, was applied at the place of the actual animal existence. The unconditioned stimulus (US), in form of 0.6 mA intensity electric shock, was randomly applied to the paw during the last 5 seconds of the conditioned stimulus. The animal's movement during the CS and US from one part of the box to the other, was defined as avoidance and escape responses, respectively. Both responses ceased the actual stimulus and stopped the trial. The time elapsed until the next trial (intertrial interval, ITI) was 15 seconds. While one experiment was carried out daily, an experiment consisted of 80 trials. Learning efficiency was expressed as percentage of the successful to the total avoidances. Effect of the neuroleptic drugs was examined in animals with stabilized conditioned reflexes and with at least 75% learning efficiency. Dosing was carried out once a week, one hour before the measurement in the shuttle box. To calculate the neuroleptic effect (50% inhibiting dose, ID50) , results obtained after the treatment were compared to those obtained on the previous day (controls).

Male Wistar rats [2] = test: Vogel test (drinking conflict test), anxiolytic effect; format: in vivo, rat (Wistar); conditions: for minimal effective dose: ip, 0.5 h, rat, intraperitoneally, half an hour before testing, read-out: MED (minimum effective dose), Vogel test; for anxiolytic activity (in words): Vogel test, compared with Meprobamate or within the group
Description: 1.1. Vogel test (drinking conflict test)
The anxiolytic effect was tested by using the method of Vogel et al. Male Wistar rats of 160 to 180 g body weight were kept free of food and drinking water for 24 and 48 hours, respectively. Test and carrier substances were administered intraperitoneally half an hour before testing. Animals within the experimental chamber were provided with drinking water through an inserted tube. After the animals' each twenty lapping for water the device emitted a 2 mA intensity electric shock through the drinking tube. During 5 minutes the shocks tolerated by the animals in order to quench their thirst were counted. The effect of treatment was expressed as the % increase of the tolerated shocks. The minimum effective dose (MED) was determined for each test compound [Volge, J. R., Beer, B., Clody, D. E.: Psychopharmacologia (Berl.) 21, 1 (1971)].

mice = test: Effect on the spontaneous motor activity (Borsy), sedative effect; format: in vivo, mouse; conditions: Mus musculus, po, 0.5 h; mice, orally, 30 minutes; read-out: ID50, spontaneous motor activity
Description: 2.1. Effect on the spontaneous motor activity
The test was carried out according to the method of Borsy et al. Groups consisting of 3 mice each were treated orally with different doses of the compounds to be tested. Then the test animals were placed into a 10-channel Dews system equipment. In this equipment the number of interruptions of infrared beam within 30 minutes was counted. […] Int. Pharmacodyn. 124, 1 (1960)].

[3] = tested on: erosion of the stomach wall; test: Cytoprotective effect, ethanol erosion (Robert); format: in vivo; conditions: rat
Description: 3. The cytoprotective effect was determined according to the method of Robert [Robert, A.: Cytoprotection by prostaglandins. […] Rats weighing 200 to 250 g were used as test animals. 1 cm^3 of abs. ethanol was introduced to the stomach to produce an erosion of the stomach wall. The length and frequency of the lesions (erosion index and frequency) were measured and the percentage inhibition of lesion formation compared with vehicle-treated animals was calculated.

gastric-acid secretion = test: Gastric-acid-secretion test (Shay); format: in vivo, rat; conditions: po; rat, p.o., 4 hours after ligature; read-out: Acid-secretion inhibition, ED50
Description: 2. […] The liberated gastric-acid content was determined by titration 4 hours after the ligature of the duodenum.

[4] = Acute toxicity on mice (Litchfield and Wilcoxon); conditions: mouse, in vivo, ip
[5] = Acute toxicity on mice (Litchfield and Wilcoxon); conditions: mouse, in vivo, po
Description: The test was carried out according to the method of Litchfield and Wilcoxon [Litchfield, J. T. and Wilcoxon, F. W.: J. Pharmacol. Exp. Ther., 96, 99 (1949)] by using white mice belonging to the CFLP strain and weighing 10 to 22 g, 10 animals per dose. The test compounds were administered orally in a volume of 20 cm^3 /kg.

rat's parietal cell = test: 14C-aminopyrine accumulation by parietal cells; format: cell-based, rat (Wistar); conditions: stimulated rat parietal cells; read-out: ED50, inhibition of aminopyrine accumulation
Description: 4. Measurement of ^14 C-aminopyrine accumulation by parietal cells
Gastric mucosal cells were prepared from rat stomach. Wistar rats (130-160 g) were killed by decapitation, the stomachs were rapidly excised and their contents were washed out with saline. The stomachs were then everted and filled with 2.5 mg/ml of pronase containing buffer. These sacs were incubated for 60 minutes at 37° C. in carbogen gassed medium. This incubation was followed by gentle stirring at room temperature for 45 minutes by a magnetic stirrer in order to disperse the cells from the mucosa of the everted stomachs digested only from the serosal side. The viability of the cells was determined by trypan-blue exclusion test. The percentage of the parietal cells was determined on the basis of their morphological characteristics.
Acid production of the cells prepared in this way could be induced by cyclic AMP, histamine (in the presence of 3-isobutyl-1-methylxanthine) or carbachol. The acid production was assessed by measuring the accumulation of ^14 C-aminopyrine. The undissociated weak base can penetrate into the acid-containing compartments of the cells. […] Thus, the distribution of ^14 C-aminopyrine between the extracellular and intracellular spaces is an indirect quantitative index for the cellular acid production [W. Schepp, J. Schmidtler, C. […]

[6] = tested on: Male rats (Sprague Dawley); test: Elevated plus maze test on rat, anxiolytic effect; format: in vivo, rat (Sprague Dawley); conditions: po, 1 h, p.o., pretreatment 60 minutes, read-out: MED (minimum effective dose), elevated plus maze
Description: 1.2. Elevated plus maze test on rat
The test was carried out with the aid of a wooden plus-shaped maze elevated to a height of 50 cm. Two arms--opposite to one another--were enclosed up to a height of 40 cm along their longer sides and at the end. The other two arms were without walls (open arms). The central 15×15 cm part was open. Male rats belonging to the Sprague Dawley strain and weighing 220 to 260 g were used as test animals. After pretreatment lasting 60 minutes the animals were placed into the central part of the maze. During the 5 minutes observation period the following parameters were recorded: […]
time spent on the open arms time spent on the closed arms number of open arm entries number of closed arm entries
The drug effect was expressed as percent increase of the time spent on the open arms and number of open arm entries. The minimum effective dose which caused a significant increase of the time spent on the open arms was calculated for every substance [Pelow, S., Chopin, P., File, S. E., Briley, M.: J. Neurosci. Methods 14, 149-167 (1985)].

T1 sequence (P19156 2-1034 limits assumed): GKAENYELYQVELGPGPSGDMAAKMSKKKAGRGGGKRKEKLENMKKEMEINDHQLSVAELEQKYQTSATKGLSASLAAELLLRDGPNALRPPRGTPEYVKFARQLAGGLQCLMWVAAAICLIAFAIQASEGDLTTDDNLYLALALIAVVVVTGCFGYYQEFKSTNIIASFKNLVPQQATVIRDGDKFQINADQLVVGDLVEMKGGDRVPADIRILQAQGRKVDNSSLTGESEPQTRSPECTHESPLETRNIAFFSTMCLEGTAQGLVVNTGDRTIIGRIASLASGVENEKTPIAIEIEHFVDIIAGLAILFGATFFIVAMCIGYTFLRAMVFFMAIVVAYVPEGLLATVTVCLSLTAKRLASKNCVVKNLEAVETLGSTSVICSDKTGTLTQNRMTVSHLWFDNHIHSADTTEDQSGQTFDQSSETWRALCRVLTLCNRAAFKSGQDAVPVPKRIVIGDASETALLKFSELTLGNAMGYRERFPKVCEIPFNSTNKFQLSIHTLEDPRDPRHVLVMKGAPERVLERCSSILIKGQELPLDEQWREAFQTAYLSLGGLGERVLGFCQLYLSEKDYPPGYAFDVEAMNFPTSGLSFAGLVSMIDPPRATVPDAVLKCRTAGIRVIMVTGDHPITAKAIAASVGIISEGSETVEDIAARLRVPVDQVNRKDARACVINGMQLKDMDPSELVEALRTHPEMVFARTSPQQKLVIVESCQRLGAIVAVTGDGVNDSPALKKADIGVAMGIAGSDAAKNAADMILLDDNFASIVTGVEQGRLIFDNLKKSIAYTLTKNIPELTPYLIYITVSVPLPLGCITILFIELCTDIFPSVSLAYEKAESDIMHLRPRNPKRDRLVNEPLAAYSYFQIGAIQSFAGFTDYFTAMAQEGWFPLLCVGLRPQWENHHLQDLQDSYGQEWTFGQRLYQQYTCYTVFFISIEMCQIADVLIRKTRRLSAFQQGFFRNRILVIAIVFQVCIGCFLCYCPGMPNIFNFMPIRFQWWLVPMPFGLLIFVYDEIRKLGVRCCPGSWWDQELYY
T1 sequence (P18434 whole entry partner): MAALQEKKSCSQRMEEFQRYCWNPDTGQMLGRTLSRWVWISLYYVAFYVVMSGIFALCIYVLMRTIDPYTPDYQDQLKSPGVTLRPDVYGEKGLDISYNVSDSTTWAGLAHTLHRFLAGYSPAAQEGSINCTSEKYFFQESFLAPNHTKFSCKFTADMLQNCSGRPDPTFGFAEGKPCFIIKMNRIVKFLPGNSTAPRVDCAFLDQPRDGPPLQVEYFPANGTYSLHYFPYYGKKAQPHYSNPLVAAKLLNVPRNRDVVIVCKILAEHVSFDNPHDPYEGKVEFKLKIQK

Compound	IC50 (H^+ /K^+ -ATP-ase) [µM]	Inhibition of the conditioned reflex (%) (Male Wistar rats [1])	minimal effective dose (Male Wistar rats [2]) [mg/kg]	ED50 (mice) [mg/kg]	ED50 ([3]; po, 1 cm^3 abs. ethanol) [mg/kg]	Ratio of acid-secretion inhibition and erosion inhibition ([3]; ratio of ED50 values, p.o.)	ED50 (gastric-acid secretion) [mg/kg]	LD50 at 336 h [4] [mg/kg]	LD50 at 336 h [5] [mg/kg]	IC50 (rat's parietal cell) [µM]	minimal effective dose [6] [mg/kg]	anxiolytic activity (in words) (Male Wistar rats [2])
CC(C)CCC(/C=C/c1ccc(Cl)cc1)=N\OCCCN1CCCCC1 [Example 9, 1-(4-Chlorophenyl)-6-methyl-3-(E)-[3-(N-piperidinyl)-propoxyimino]-1-(E)-heptene]	12	16	> 30	> 100	5.9	18.1	107	160	> 1000	0.05	–	–
CC(C)CC(/C=C/c1ccccc1)=N\OCCN1CCCCC1 [Example 10, 1-Phenyl-5-methyl-3-(E)-[2-(N-piperidinyl)-ethoxyimino]-1-(E)-hexene]	–	13	0.1	> 100	–	–	–	–	–	–	10	the most active members in the structural group
CCCC(/C=C/c1ccccc1)=N\OCCCN(C)C [Example 21, 1-Phenyl-3-(E)-[3-(dimethylamino)-propoxyimino]-1-(E)-hexene]	–	7	0.03	> 100	–	–	–	–	–	–	1	the most active members in the structural group
CCCC(C)(COC(N)=O)COC(N)=O [Meprobamate, reference compound]	–	–	25	–	–	–	–	–	–	–	> 10	–
